Assay results published in US20240246933A1, “CRYSTALLINE FORM OF TRICYCLIC DERIVATIVE COMPOUND, METHOD FOR PREPARING SAME, AND PHARMACEUTICAL COMPOSITION COMPRISING SAME” (ONCONIC THERAPEUTICS INC., priority 2021, published 2024).
pIC50: −log10 of the molar value. Counter-ions that a name gives are not always drawn. Like-named read-outs stand apart in the source and are kept apart here. Each block holds one molecule with its values, some of them ahead of it.

Key:
[1] = Measurement of solubility in water (shake-flask, UPLC); format: physicochemical; settings: for Water solubility: shake-flask shaken for 24 hours, UPLC
Protocol: Compounds are dissolved in DMSO and measured by UPLC, and then a calibration curve is drawn. The compounds saturated by the Shake-flask method are filtered and then measured by UPLC, and it is substituted into a calibration curve to calculate the concentration.

[2] = molecular target: PARP-1 enzyme (Homo sapiens, UniProt P09874); assay: Inhibition test of poly (ADP-ribose) polymerase [PARP-1] enzyme (BPS Bioscience kit)
Protocol: Histones were coated on a 96-well plate provided from BPS Bioscience's kit and left at 4° C. for 16 hours. […] After 1 hour, each well was washed 4 times with PBST, and streptavidin-linked peroxidase (Strep-HRP, 1:50 dilution) was added thereto to measure the amount of ribosylation by PARP enzyme, and reacted at 25° C. for 30 minutes. The plate was washed 4 times with PBST, and then HRP chemiluminescent substrate was finally added thereto and reacted. The amount of histone ribosylation formed by each enzyme was quantified using a Synergy™ H4 Hybrid Multi-Mode Microplate Reader (BioTek Instruments, Inc., US (A)).

[3] = Stability of the addition salt of Compound 1 (temperature, humidity, light; purity by HPLC); format: physicochemical; settings: for Stability in the temperature and humidity (in words): temperature and humidity conditions of Table 5
Protocol: The stability of crystals of the addition salt of Compound 1 prepared in the Examples and Comparative Examples above was confirmed, and the results are shown in Table 5 below.
Experiments according to temperature, humidity and light conditions were carried out by a method of confirming purity by HPLC after storage in a stability chamber under each condition.
Each sample was spread thinly in a Petri dish, and then the stability was evaluated after irradiation with UV light having a light intensity of 35 W to a total irradiation amount of 200 watts under conditions of 25° C. and 60% humidity using a photostability test chamber (CARON 6542-2).
Each sample was spread thinly in a Petri dish, and then the stability was evaluated after irradiation with visible light having a light intensity of 35 k Lux to a total irradiation amount of 1200 k lux under conditions of 25° C. and 60% humidity using a photostability test chamber (CARON 6542-2).

[4] = molecular target: T1, tankyrase-2 enzyme (Homo sapiens, UniProt Q9H2K2); assay: Inhibition test of tankyrase-2 enzyme (BPS Bioscience kit); format: biochemical; settings: tankyrase-2 enzyme 15 ng/well, 25° C. for 1 hour; read-out: IC50 (tankyrase-2 enzyme inhibitory activity)
T1 construct: purchased BPS Bioscience 80578
Protocol: (§1) Histones were coated on a 96-well plate provided from BPS Bioscience's kit and left at 4 °C for 16 hours. […] After 1 hour, each well was washed 4 times with PBST, and streptavidin-linked peroxidase (Strep-HRP, 1:50 dilution) was added thereto to measure the amount of ribosylation by PARP enzyme, and reacted at 25° C. for 30 minutes. The plate was washed 4 times with PBST, and then HRP chemiluminescent substrate was finally added thereto and reacted. The amount of histone ribosylation formed by each enzyme was quantified using a Synergy™ H4 Hybrid Multi-Mode Microplate Reader (BioTek Instruments, Inc., US (A)).

[5] = Measurement of solubility in various solvents; format: physicochemical; settings: 0.1 g of sample, 15 to 25° C., within 30 minutes
Protocol: Specifically, 0.1 g of sample was accurately weighed, put into each solvent, and shaken and mixed vigorously for 30 seconds every 5 minutes at 15 to 25° C., and the amount dissolved within 30 minutes was measured.

[6] = Purity and stability under accelerated and long-term storage conditions (HPLC); format: physicochemical; settings: for Purity under long-term storage conditions (area %) / Long-term storage conditions (related substances) (area %): 25±2° C., humidity 60±5%; for Purity under accelerated storage conditions (area %) / Accelerated storage conditions (related substances) (area %): 40±2° C., humidity 75±5%
Protocol: The purity and stability of the crystalline anhydride of the citrate prepared in Example 2 and the crystalline monohydrate of the citrate prepared in Example 3 according to the present invention were evaluated, and the results are shown in Tables 8 and 9 below.
In the tables below, stability tests were conducted under accelerated storage conditions of a temperature of 40±2° C. and humidity of 75±5%, and purity and stability tests were conducted under long-term storage conditions of a temperature of 25±2° C. and humidity of 60±5%. Experimental results were measured under the same conditions as in Experimental Example 1 using HPLC (product name: agilent 1290, manufacturer: Agilent).

[7] = molecular target: tankyrase-1 enzyme (Homo sapiens, UniProt O95271); assay: biochemical
Protocol: as §1

[8] = Temperature of 40° C., humidity of 70%, 3 days
[9] = UV 200 watt, 25° C. and 60% humidity
[10] = Visible 1200k lux, 25° C. and 60% humidity
[11] = 3 months, listed as Crystalline anhydride of citrate in Example 2
[12] = 6 months, listed as Crystalline anhydride of citrate in Example 2
[13] = initial, listed as Crystalline anhydride of citrate in Example 2
[14] = 3 months, listed as Crystalline monohydrate of citrate in Example 3
[15] = 6 months, listed as Crystalline monohydrate of citrate in Example 3
[16] = initial, listed as Crystalline monohydrate of citrate in Example 3

PARP-1 enzyme, sequence (P09874 whole entry): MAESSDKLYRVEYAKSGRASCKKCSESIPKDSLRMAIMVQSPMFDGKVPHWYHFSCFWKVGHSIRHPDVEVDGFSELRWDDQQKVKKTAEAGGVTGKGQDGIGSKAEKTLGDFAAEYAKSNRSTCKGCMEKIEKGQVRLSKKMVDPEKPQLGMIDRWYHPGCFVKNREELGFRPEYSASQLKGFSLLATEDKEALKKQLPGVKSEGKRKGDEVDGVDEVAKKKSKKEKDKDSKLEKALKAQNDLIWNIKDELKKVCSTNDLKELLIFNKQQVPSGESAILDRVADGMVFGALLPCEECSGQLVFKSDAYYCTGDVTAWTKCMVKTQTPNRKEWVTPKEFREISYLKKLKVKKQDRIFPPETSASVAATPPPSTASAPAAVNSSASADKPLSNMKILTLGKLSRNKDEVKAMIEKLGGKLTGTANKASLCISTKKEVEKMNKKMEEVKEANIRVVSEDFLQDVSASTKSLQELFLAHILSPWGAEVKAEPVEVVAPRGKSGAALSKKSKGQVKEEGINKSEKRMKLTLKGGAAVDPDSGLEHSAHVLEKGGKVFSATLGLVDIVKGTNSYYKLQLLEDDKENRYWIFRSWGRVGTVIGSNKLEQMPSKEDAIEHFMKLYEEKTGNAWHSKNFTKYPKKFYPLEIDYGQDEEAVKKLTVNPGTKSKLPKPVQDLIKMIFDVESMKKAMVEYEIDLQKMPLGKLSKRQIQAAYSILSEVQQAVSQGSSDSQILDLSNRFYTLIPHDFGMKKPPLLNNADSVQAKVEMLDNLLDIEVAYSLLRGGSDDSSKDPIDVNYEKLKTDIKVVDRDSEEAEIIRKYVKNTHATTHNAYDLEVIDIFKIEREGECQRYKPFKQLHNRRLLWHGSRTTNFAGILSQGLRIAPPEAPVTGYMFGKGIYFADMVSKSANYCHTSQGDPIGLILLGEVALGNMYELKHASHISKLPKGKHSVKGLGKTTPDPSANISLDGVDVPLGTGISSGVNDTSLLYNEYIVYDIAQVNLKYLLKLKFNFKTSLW
T1 sequence (Q9H2K2 849-1166): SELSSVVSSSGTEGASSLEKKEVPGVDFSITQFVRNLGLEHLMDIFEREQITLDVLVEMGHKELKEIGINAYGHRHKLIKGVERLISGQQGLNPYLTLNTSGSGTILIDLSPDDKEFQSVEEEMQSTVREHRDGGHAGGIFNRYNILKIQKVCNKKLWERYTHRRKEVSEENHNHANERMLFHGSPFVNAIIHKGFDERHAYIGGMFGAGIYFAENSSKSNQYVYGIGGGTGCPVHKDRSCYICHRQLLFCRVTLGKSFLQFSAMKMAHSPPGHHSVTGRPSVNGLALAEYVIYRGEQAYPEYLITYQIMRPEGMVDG
tankyrase-1 enzyme, sequence (O95271 1001-1327): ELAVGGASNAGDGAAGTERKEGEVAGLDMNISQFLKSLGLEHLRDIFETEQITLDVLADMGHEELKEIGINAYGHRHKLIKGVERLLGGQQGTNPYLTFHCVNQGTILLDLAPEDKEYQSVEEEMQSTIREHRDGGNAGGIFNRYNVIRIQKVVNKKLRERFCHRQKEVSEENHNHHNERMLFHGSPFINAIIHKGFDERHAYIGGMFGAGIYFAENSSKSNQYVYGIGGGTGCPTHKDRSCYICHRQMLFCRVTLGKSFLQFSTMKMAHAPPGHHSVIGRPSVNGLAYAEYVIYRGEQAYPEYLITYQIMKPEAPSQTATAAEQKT

Structure (SMILES): N#Cc1ccc(N2CCN(Cc3ccc4c5c(c(=O)[nH]c4c3)CCCN5)CC2)nc1 [Compound 1, 6-{4-[(5-oxo-1,2,3,4,5,6-hexahydrobenzo[h][1,6]naphthyridin-8-yl)methyl]piperazin-1-yl}nicotinonitrile]
Water solubility ([1]; listed as Crystal (free form) of the compound of Formula 1 in Comparative Example 1-1): 1 µM
Solubility (0.1 g/mL) ([5]; Aqueous HCl solution (pH 1.1), listed as Free form): 350 mL
Solubility (0.1 g/mL) ([5]; DMF, listed as Free form): 8 mL
Solubility (0.1 g/mL) ([5]; EtOH, listed as Free form): ≥ 1000 mL
Solubility (0.1 g/mL) ([5]; MeOH, listed as Free form): 300 mL
Solubility (0.1 g/mL) ([5]; Water, listed as Free form): ≥ 1200 mL

Structure (SMILES): N#Cc1ccc(N2CCN(Cc3ccc4c5c(c(=O)[nH]c4c3)CCCN5)CC2)nc1 [Example 2, Citrate Anhydride of 6-{4-[(5-oxo-1,2,3,4,5,6-hexahydrobenzo[h][1,6]naphthyridin-8-yl)methyl]piperazine-1-yl}nicotinonitrile]
Purity under long-term storage conditions (area %) ([6]; 1 month): 99.64%
Purity under long-term storage conditions (area %) ([6]; 3 months): 99.66%
Long-term storage conditions (related substances) (area %) [6, 11]: 0.28%
Purity under long-term storage conditions (area %) ([6]; 6 months): 99.58%
Long-term storage conditions (related substances) (area %) [6, 12]: 0.29%
Long-term storage conditions (related substances) (area %) ([6]; 9 months): 0.31%
Purity under long-term storage conditions (area %) ([6]; 9 months): 99.67%
Long-term storage conditions (related substances) (area %) ([6]; 12 months): 0.29%
Purity under long-term storage conditions (area %) ([6]; 12 months): 99.72%
Long-term storage conditions (related substances) (area %) ([6]; 18 months): 0.33%
Purity under long-term storage conditions (area %) ([6]; 18 months): 99.73%
Long-term storage conditions (related substances) (area %) ([6]; 24 months): 0.34%
Purity under long-term storage conditions (area %) ([6]; 24 months): 99.74%
Long-term storage conditions (related substances) (area %) ([6]; 30 months): 0.34%
Long-term storage conditions (related substances) (area %) ([6]; 36 months): 0.30%
Purity under long-term storage conditions (area %) ([6]; 36 months): 99.73%
Purity under long-term storage conditions (area %) ([6]; initial): 99.66%
Long-term storage conditions (related substances) (area %) [6, 13]: 0.26%
Purity under accelerated storage conditions (area %) ([6]; 1 month): 99.64%
Purity under accelerated storage conditions (area %) ([6]; 3 months): 99.65%
Accelerated storage conditions (related substances) (area %) [6, 11]: 0.24%
Purity under accelerated storage conditions (area %) ([6]; 6 months): 99.54%
Accelerated storage conditions (related substances) (area %) [6, 12]: 0.28%
Purity under accelerated storage conditions (area %) ([6]; initial): 99.66%
Accelerated storage conditions (related substances) (area %) [6, 13]: 0.26%
Solubility in water (in words) ([1]; compared to other salts): remarkably excellent solubility in water
Water solubility ([1]; listed as Crystalline anhydride of citrate of Compound 1): 1067 µM
pIC50 [2]: 8.58
Purity (%) ([3]; Humidity of 75%, 3 days): 97.81%
Purity (%) ([3]; Initial value): 97.97%
Purity (%) [3, 8]: 97.79%
Purity (%) ([3]; Temperature of 50° C., 3 days): 97.86%
Purity (%) ([3]; UV 200 watt - dark): 98.38%
Purity (%) [3, 9]: 96.94%
Purity (%) ([3]; Visible 1200k lux - dark): 98.39%
Purity (%) [3, 10]: 96.73%
Stability in the temperature and humidity (in words) [3]: stable
pIC50 [7]: 8.37
pIC50 [4]: 8.97
Solubility (0.1 g/mL) ([5]; Aqueous HCl solution (pH 1.1), listed as Crystalline anhydride of citrate in Example 2): ≤ 100 mL
Solubility (0.1 g/mL) ([5]; DMF, listed as Crystalline anhydride of citrate in Example 2): 8 mL
Solubility (0.1 g/mL) ([5]; EtOH, listed as Crystalline anhydride of citrate in Example 2): ≥ 1000 mL
Solubility (0.1 g/mL) ([5]; MeOH, listed as Crystalline anhydride of citrate in Example 2): ≥ 100 mL
Solubility (0.1 g/mL) ([5]; Water, listed as Crystalline anhydride of citrate in Example 2): ≤ 1000 mL

The remaining lines, values ahead:

Water solubility [1]: 392 µM
pIC50 ([2]; read-out: IC50 (PARP-1 enzyme inhibitory activity), PARP-1 enzyme 50 ng/well, 25° C. for 1 hour): 8.52
Purity (%) ([3]; Humidity of 75%, 3 days): 97.76%
Purity (%) ([3]; Initial value): 97.89%
Purity (%) [3, 8]: 97.83%
Purity (%) ([3]; Temperature of 50° C., 3 days): 97.79%
Purity (%) ([3]; UV 200 watt - dark): 97.89%
Photostability (in words) ([3]; UV200 watt and Visible1200 k lux): remarkably poor photostability
Purity (%) [3, 9]: 86.89%
Purity (%) ([3]; Visible 1200k lux - dark): 97.89%
Purity (%) [3, 10]: 93.40%
Stability in the temperature and humidity (in words) [3]: stable
pIC50 [4]: 8.95
Structure (SMILES): Cl.Cl.N#Cc1ccc(N2CCN(Cc3ccc4c5c(c(=O)[nH]c4c3)CCCN5)CC2)nc1 [Comparative Example 2, Dichloride Salt of 6-{4-[(5-oxo-1,2,3,4,5,6-hexahydrobenzo[h][1,6]naphthyridin-8-yl)methyl]piperazine-1-yl}nicotinonitrile]

Long-term storage conditions (related substances) (area %) [6, 14]: 0.29%
Long-term storage conditions (related substances) (area %) [6, 15]: 0.32%
Long-term storage conditions (related substances) (area %) [6, 16]: 0.38%
Accelerated storage conditions (related substances) (area %) [6, 14]: 0.34%
Accelerated storage conditions (related substances) (area %) [6, 15]: 0.32%
Accelerated storage conditions (related substances) (area %) [6, 16]: 0.38%
Solubility (0.1 g/mL) ([5]; Aqueous HCl solution (pH 1.1), listed as Crystalline monohydrate of citrate in Example 3): 50 mL
Solubility (0.1 g/mL) ([5]; DMF, listed as Crystalline monohydrate of citrate in Example 3): 2.9 mL
Solubility (0.1 g/mL) ([5]; EtOH, listed as Crystalline monohydrate of citrate in Example 3): 350 mL
Solubility (0.1 g/mL) ([5]; MeOH, listed as Crystalline monohydrate of citrate in Example 3): 9 mL
Solubility (0.1 g/mL) ([5]; Water, listed as Crystalline monohydrate of citrate in Example 3): 400 mL
Structure (SMILES): N#Cc1ccc(N2CCN(Cc3ccc4c5c(c(=O)[nH]c4c3)CCCN5)CC2)nc1 [Example 3, Citrate Monohydrate of 6-{4-[(5-oxo-1,2,3,4,5,6-hexahydrobenzo[h][1,6]naphthyridin-8-yl)methyl]piperazine-1-yl}nicotinonitrile]

Solubility (0.1 g/mL) ([5]; Aqueous HCl solution (pH 1.1), listed as Crystalline dihydrate of citrate in Example 4): 55 mL
Solubility (0.1 g/mL) ([5]; DMF, listed as Crystalline dihydrate of citrate in Example 4): 2.5 mL
Solubility (0.1 g/mL) ([5]; EtOH, listed as Crystalline dihydrate of citrate in Example 4): 450 mL
Solubility (0.1 g/mL) ([5]; MeOH, listed as Crystalline dihydrate of citrate in Example 4): 9 mL
Solubility (0.1 g/mL) ([5]; Water, listed as Crystalline dihydrate of citrate in Example 4): ≥ 400 mL
Structure (SMILES): N#Cc1ccc(N2CCN(Cc3ccc4c5c(c(=O)[nH]c4c3)CCCN5)CC2)nc1 [Example 4, Citrate Dihydrate of 6-{4-[(5-oxo-1,2,3,4,5,6-hexahydrobenzo[h][1,6]naphthyridin-8-yl)methyl]piperazine-1-yl}nicotinonitrile]
